Oligonucleotides are given in HELM: sugar(base)linkage, 5' to 3'; d 2'-deoxyribose, r ribose, m 2'-O-methylribose, p phosphate. ss, as = sense and antisense strand
These substances were tested against Mmp7 (rat) (assay: reporter assay of Huesken 2005). Conditions: siRNA.
Work on “RNA1{r(C)p.r(A)p.r(G)p.r(U)p.r(G)p.r(C)p.r(A)p.r(G)p.r(U)p.r(G)p.r(G)p.r(A)p.r(C)p.r(A)p.r(A)p.r(A)p.r(C)p.r(U)p.r(G)p.d(T)p.d(T)}|RNA2{r(C)p.r(A)p.r(G)p.r(U)p.r(U)p.r(U)p.r(G)p.r(U)p.r(C)p.r(C)p.r(A)p.r(C)p.r(U)p.r(G)p.r(C)p.r(A)p.r(C)p.r(U)p.r(G)p.d(G)p.d(T)}$$$RNA1{StrandType:ss}|RNA2{StrandType:as}$” yielded a normalised inhibition (eCFP-eYFP dual reporter) of 100%.
For “RNA1{r(C)p.r(A)p.r(U)p.r(A)p.r(A)p.r(U)p.r(U)p.r(G)p.r(G)p.r(C)p.r(U)p.r(U)p.r(C)p.r(G)p.r(C)p.r(A)p.r(A)p.r(G)p.r(G)p.d(T)p.d(T)}|RNA2{r(C)p.r(C)p.r(U)p.r(U)p.r(G)p.r(C)p.r(G)p.r(A)p.r(A)p.r(G)p.r(C)p.r(C)p.r(A)p.r(A)p.r(U)p.r(U)p.r(A)p.r(U)p.r(G)p.d(A)p.d(T)}$$$RNA1{StrandType:ss}|RNA2{StrandType:as}$”, the normalised inhibition (eCFP-eYFP dual reporter) was 63.1%.
Substance “RNA1{r(C)p.r(A)p.r(U)p.r(G)p.r(G)p.r(A)p.r(G)p.r(A)p.r(U)p.r(A)p.r(A)p.r(U)p.r(G)p.r(C)p.r(A)p.r(G)p.r(A)p.r(A)p.r(G)p.d(T)p.d(T)}|RNA2{r(C)p.r(U)p.r(U)p.r(C)p.r(U)p.r(G)p.r(C)p.r(A)p.r(U)p.r(U)p.r(A)p.r(U)p.r(C)p.r(U)p.r(C)p.r(C)p.r(A)p.r(U)p.r(G)p.d(A)p.d(C)}$$$RNA1{StrandType:ss}|RNA2{StrandType:as}$” has a normalised inhibition (eCFP-eYFP dual reporter) of 97.5%.
“RNA1{r(C)p.r(C)p.r(A)p.r(G)p.r(G)p.r(A)p.r(A)p.r(A)p.r(C)p.r(A)p.r(C)p.r(U)p.r(C)p.r(U)p.r(A)p.r(G)p.r(G)p.r(C)p.r(C)p.d(T)p.d(T)}|RNA2{r(G)p.r(G)p.r(C)p.r(C)p.r(U)p.r(A)p.r(G)p.r(A)p.r(G)p.r(U)p.r(G)p.r(U)p.r(U)p.r(U)p.r(C)p.r(C)p.r(U)p.r(G)p.r(G)p.d(C)p.d(C)}$$$RNA1{StrandType:ss}|RNA2{StrandType:as}$” was tested, and the normalised inhibition (eCFP-eYFP dual reporter) was 33.8%.
“RNA1{r(C)p.r(C)p.r(A)p.r(G)p.r(G)p.r(A)p.r(A)p.r(G)p.r(C)p.r(C)p.r(G)p.r(G)p.r(A)p.r(G)p.r(A)p.r(A)p.r(G)p.r(U)p.r(G)p.d(T)p.d(T)}|RNA2{r(C)p.r(A)p.r(C)p.r(U)p.r(U)p.r(C)p.r(U)p.r(C)p.r(C)p.r(G)p.r(G)p.r(C)p.r(U)p.r(U)p.r(C)p.r(C)p.r(U)p.r(G)p.r(G)p.d(G)p.d(A)}$$$RNA1{StrandType:ss}|RNA2{StrandType:as}$” was tested, and the normalised inhibition (eCFP-eYFP dual reporter) was 72.2%.
“RNA1{r(C)p.r(C)p.r(A)p.r(G)p.r(G)p.r(U)p.r(G)p.r(U)p.r(G)p.r(G)p.r(A)p.r(G)p.r(U)p.r(G)p.r(C)p.r(C)p.r(A)p.r(G)p.r(A)p.d(T)p.d(T)}|RNA2{r(U)p.r(C)p.r(U)p.r(G)p.r(G)p.r(C)p.r(A)p.r(C)p.r(U)p.r(C)p.r(C)p.r(A)p.r(C)p.r(A)p.r(C)p.r(C)p.r(U)p.r(G)p.r(G)p.d(G)p.d(C)}$$$RNA1{StrandType:ss}|RNA2{StrandType:as}$” showed a normalised inhibition (eCFP-eYFP dual reporter) of 85.6%.
Substance “RNA1{r(C)p.r(C)p.r(C)p.r(A)p.r(G)p.r(G)p.r(A)p.r(A)p.r(G)p.r(C)p.r(C)p.r(G)p.r(G)p.r(A)p.r(G)p.r(A)p.r(A)p.r(G)p.r(U)p.d(T)p.d(T)}|RNA2{r(A)p.r(C)p.r(U)p.r(U)p.r(C)p.r(U)p.r(C)p.r(C)p.r(G)p.r(G)p.r(C)p.r(U)p.r(U)p.r(C)p.r(C)p.r(U)p.r(G)p.r(G)p.r(G)p.d(A)p.d(C)}$$$RNA1{StrandType:ss}|RNA2{StrandType:as}$” has a normalised inhibition (eCFP-eYFP dual reporter) of 64.2%.
With “RNA1{r(C)p.r(C)p.r(C)p.r(A)p.r(G)p.r(G)p.r(U)p.r(G)p.r(U)p.r(G)p.r(G)p.r(A)p.r(G)p.r(U)p.r(G)p.r(C)p.r(C)p.r(A)p.r(G)p.d(T)p.d(T)}|RNA2{r(C)p.r(U)p.r(G)p.r(G)p.r(C)p.r(A)p.r(C)p.r(U)p.r(C)p.r(C)p.r(A)p.r(C)p.r(A)p.r(C)p.r(C)p.r(U)p.r(G)p.r(G)p.r(G)p.d(C)p.d(T)}$$$RNA1{StrandType:ss}|RNA2{StrandType:as}$” the normalised inhibition (eCFP-eYFP dual reporter) was 60.7%.
With “RNA1{r(C)p.r(C)p.r(C)p.r(U)p.r(A)p.r(C)p.r(C)p.r(U)p.r(A)p.r(U)p.r(C)p.r(A)p.r(A)p.r(G)p.r(G)p.r(A)p.r(G)p.r(A)p.r(U)p.d(T)p.d(T)}|RNA2{r(A)p.r(U)p.r(C)p.r(U)p.r(C)p.r(C)p.r(U)p.r(U)p.r(G)p.r(A)p.r(U)p.r(A)p.r(G)p.r(G)p.r(U)p.r(A)p.r(G)p.r(G)p.r(G)p.d(T)p.d(A)}$$$RNA1{StrandType:ss}|RNA2{StrandType:as}$” the normalised inhibition (eCFP-eYFP dual reporter) was 102%.
“RNA1{r(C)p.r(C)p.r(G)p.r(C)p.r(A)p.r(C)p.r(U)p.r(U)p.r(C)p.r(A)p.r(G)p.r(U)p.r(G)p.r(G)p.r(G)p.r(A)p.r(A)p.r(C)p.r(A)p.d(T)p.d(T)}|RNA2{r(U)p.r(G)p.r(U)p.r(U)p.r(C)p.r(C)p.r(C)p.r(A)p.r(C)p.r(U)p.r(G)p.r(A)p.r(A)p.r(G)p.r(U)p.r(G)p.r(C)p.r(G)p.r(G)p.d(T)p.d(C)}$$$RNA1{StrandType:ss}|RNA2{StrandType:as}$” showed a normalised inhibition (eCFP-eYFP dual reporter) of 91.6%.
Work on “RNA1{r(C)p.r(C)p.r(G)p.r(G)p.r(A)p.r(G)p.r(A)p.r(A)p.r(G)p.r(U)p.r(G)p.r(A)p.r(C)p.r(C)p.r(G)p.r(C)p.r(A)p.r(C)p.r(U)p.d(T)p.d(T)}|RNA2{r(A)p.r(G)p.r(U)p.r(G)p.r(C)p.r(G)p.r(G)p.r(U)p.r(C)p.r(A)p.r(C)p.r(U)p.r(U)p.r(C)p.r(U)p.r(C)p.r(C)p.r(G)p.r(G)p.d(C)p.d(T)}$$$RNA1{StrandType:ss}|RNA2{StrandType:as}$” yielded a normalised inhibition (eCFP-eYFP dual reporter) of 94.4%.
“RNA1{r(C)p.r(C)p.r(U)p.r(C)p.r(G)p.r(G)p.r(C)p.r(G)p.r(G)p.r(A)p.r(G)p.r(A)p.r(U)p.r(G)p.r(C)p.r(U)p.r(C)p.r(A)p.r(C)p.d(T)p.d(T)}|RNA2{r(G)p.r(U)p.r(G)p.r(A)p.r(G)p.r(C)p.r(A)p.r(U)p.r(C)p.r(U)p.r(C)p.r(C)p.r(G)p.r(C)p.r(C)p.r(G)p.r(A)p.r(G)p.r(G)p.d(C)p.d(C)}$$$RNA1{StrandType:ss}|RNA2{StrandType:as}$” was tested, and the normalised inhibition (eCFP-eYFP dual reporter) was 72.1%.
“RNA1{r(C)p.r(C)p.r(U)p.r(G)p.r(C)p.r(C)p.r(A)p.r(C)p.r(U)p.r(G)p.r(U)p.r(C)p.r(C)p.r(C)p.r(A)p.r(G)p.r(G)p.r(A)p.r(A)p.d(T)p.d(T)}|RNA2{r(U)p.r(U)p.r(C)p.r(C)p.r(U)p.r(G)p.r(G)p.r(G)p.r(A)p.r(C)p.r(A)p.r(G)p.r(U)p.r(G)p.r(G)p.r(C)p.r(A)p.r(G)p.r(G)p.d(G)p.d(C)}$$$RNA1{StrandType:ss}|RNA2{StrandType:as}$” was tested, and the normalised inhibition (eCFP-eYFP dual reporter) was 67.9%.
“RNA1{r(C)p.r(C)p.r(U)p.r(U)p.r(C)p.r(A)p.r(C)p.r(G)p.r(A)p.r(C)p.r(U)p.r(C)p.r(U)p.r(A)p.r(A)p.r(A)p.r(A)p.r(C)p.r(A)p.d(T)p.d(T)}|RNA2{r(U)p.r(G)p.r(U)p.r(U)p.r(U)p.r(U)p.r(A)p.r(G)p.r(A)p.r(G)p.r(U)p.r(C)p.r(G)p.r(U)p.r(G)p.r(A)p.r(A)p.r(G)p.r(G)p.d(T)p.d(A)}$$$RNA1{StrandType:ss}|RNA2{StrandType:as}$” showed a normalised inhibition (eCFP-eYFP dual reporter) of 126%.
Substance “RNA1{r(C)p.r(G)p.r(A)p.r(C)p.r(U)p.r(C)p.r(U)p.r(A)p.r(A)p.r(A)p.r(A)p.r(C)p.r(A)p.r(A)p.r(A)p.r(G)p.r(A)p.r(A)p.r(G)p.d(T)p.d(T)}|RNA2{r(C)p.r(U)p.r(U)p.r(C)p.r(U)p.r(U)p.r(U)p.r(G)p.r(U)p.r(U)p.r(U)p.r(U)p.r(A)p.r(G)p.r(A)p.r(G)p.r(U)p.r(C)p.r(G)p.d(T)p.d(G)}$$$RNA1{StrandType:ss}|RNA2{StrandType:as}$” has a normalised inhibition (eCFP-eYFP dual reporter) of 113%.
“RNA1{r(C)p.r(G)p.r(C)p.r(A)p.r(A)p.r(G)p.r(G)p.r(G)p.r(G)p.r(A)p.r(G)p.r(A)p.r(U)p.r(C)p.r(A)p.r(C)p.r(G)p.r(G)p.r(A)p.d(T)p.d(T)}|RNA2{r(U)p.r(C)p.r(C)p.r(G)p.r(U)p.r(G)p.r(A)p.r(U)p.r(C)p.r(U)p.r(C)p.r(C)p.r(C)p.r(C)p.r(U)p.r(U)p.r(G)p.r(C)p.r(G)p.d(A)p.d(A)}$$$RNA1{StrandType:ss}|RNA2{StrandType:as}$” was tested, and the normalised inhibition (eCFP-eYFP dual reporter) was 97.3%.
Work on “RNA1{r(C)p.r(G)p.r(C)p.r(A)p.r(C)p.r(U)p.r(U)p.r(C)p.r(A)p.r(G)p.r(U)p.r(G)p.r(G)p.r(G)p.r(A)p.r(A)p.r(C)p.r(A)p.r(G)p.d(T)p.d(T)}|RNA2{r(C)p.r(U)p.r(G)p.r(U)p.r(U)p.r(C)p.r(C)p.r(C)p.r(A)p.r(C)p.r(U)p.r(G)p.r(A)p.r(A)p.r(G)p.r(U)p.r(G)p.r(C)p.r(G)p.d(G)p.d(T)}$$$RNA1{StrandType:ss}|RNA2{StrandType:as}$” yielded a normalised inhibition (eCFP-eYFP dual reporter) of 91.1%.
Work on “RNA1{r(C)p.r(G)p.r(G)p.r(C)p.r(G)p.r(G)p.r(A)p.r(G)p.r(A)p.r(U)p.r(G)p.r(C)p.r(U)p.r(C)p.r(A)p.r(C)p.r(U)p.r(U)p.r(U)p.d(T)p.d(T)}|RNA2{r(A)p.r(A)p.r(A)p.r(G)p.r(U)p.r(G)p.r(A)p.r(G)p.r(C)p.r(A)p.r(U)p.r(C)p.r(U)p.r(C)p.r(C)p.r(G)p.r(C)p.r(C)p.r(G)p.d(A)p.d(G)}$$$RNA1{StrandType:ss}|RNA2{StrandType:as}$” yielded a normalised inhibition (eCFP-eYFP dual reporter) of 118%.
“RNA1{r(C)p.r(U)p.r(A)p.r(C)p.r(C)p.r(U)p.r(A)p.r(U)p.r(C)p.r(A)p.r(A)p.r(G)p.r(G)p.r(A)p.r(G)p.r(A)p.r(U)p.r(C)p.r(A)p.d(T)p.d(T)}|RNA2{r(U)p.r(G)p.r(A)p.r(U)p.r(C)p.r(U)p.r(C)p.r(C)p.r(U)p.r(U)p.r(G)p.r(A)p.r(U)p.r(A)p.r(G)p.r(G)p.r(U)p.r(A)p.r(G)p.d(G)p.d(G)}$$$RNA1{StrandType:ss}|RNA2{StrandType:as}$” gave a normalised inhibition (eCFP-eYFP dual reporter) of 114%.
“RNA1{r(C)p.r(U)p.r(A)p.r(U)p.r(C)p.r(A)p.r(A)p.r(G)p.r(G)p.r(A)p.r(G)p.r(A)p.r(U)p.r(C)p.r(A)p.r(U)p.r(U)p.r(C)p.r(A)p.d(T)p.d(T)}|RNA2{r(U)p.r(G)p.r(A)p.r(A)p.r(U)p.r(G)p.r(A)p.r(U)p.r(C)p.r(U)p.r(C)p.r(C)p.r(U)p.r(U)p.r(G)p.r(A)p.r(U)p.r(A)p.r(G)p.d(G)p.d(T)}$$$RNA1{StrandType:ss}|RNA2{StrandType:as}$” was tested, and the normalised inhibition (eCFP-eYFP dual reporter) was 115%.

Reference: the OligoGym collection
Further: test concentration or dose not given here.
